Experimental data: PubChem BioAssay AID248 (DTP/NCI, 2004)
Values joined by “and” are separate entries in the source; they are usually repeats but may differ in a detail not shown here. Equal entries are not always repeated. Toxic doses and inconclusive results are not listed. No stated cut-off is given here; in the data, active means T/C of 150% or more; inactive means T/C below 125%.

Test system: L1210 leukemia ip in BDF1 mice, survival T/C
Test: NCI In Vivo Anticancer Drug Screen. Data for tumor model L1210 Leukemia (intraperitoneal) in B6D2F1 (BDF1) mice
Settings: endpoint: mean survival time, higher = longer survival
Outline: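 Tumor was transplanted into mice, which were then dosed with test compound or vehicle alone. Survival was recorded for each group, and the treated figure was expressed relative to the control figure.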

[1] = dose: 100.0 mg/kg/injection, schedule: Q01DX001 (ip), vehicle: carboxymethylcellulose (CMC)
[2] = dose: 100.0 mg/kg/injection, schedule: Q01DX009 (ip), vehicle: Klucel (hydroxypropylcellulose) (HPC)
[3] = dose: 200.0 mg/kg/injection, schedule: Q01DX001 (ip), vehicle: carboxymethylcellulose (CMC)
[4] = dose: 200.0 mg/kg/injection, schedule: Q01DX009 (ip), vehicle: Klucel (hydroxypropylcellulose) (HPC)
[5] = dose: 400.0 mg/kg/injection, schedule: Q01DX001 (ip), vehicle: carboxymethylcellulose (CMC)
[6] = dose: 400.0 mg/kg/injection, schedule: Q01DX009 (ip), vehicle: Klucel (hydroxypropylcellulose) (HPC)
[7] = dose: 75.0 mg/kg/injection, schedule: Q01DX001 (ip), vehicle: saline
[8] = dose: 150.0 mg/kg/injection, schedule: Q01DX001 (ip), vehicle: saline
[9] = dose: 100.0 mg/kg/injection, schedule: Q01DX001 (ip), vehicle: Klucel (hydroxypropylcellulose) (HPC)
[10] = dose: 200.0 mg/kg/injection, schedule: Q01DX001 (ip), vehicle: Klucel (hydroxypropylcellulose) (HPC)
[11] = dose: 400.0 mg/kg/injection, schedule: Q01DX001 (ip), vehicle: Klucel (hydroxypropylcellulose) (HPC)
[12] = dose: 100.0 mg/kg/injection, schedule: Q04DX003 (ip), vehicle: saline
[13] = dose: 200.0 mg/kg/injection, schedule: Q04DX003 (ip), vehicle: saline
[14] = dose: 400.0 mg/kg/injection, schedule: Q04DX003 (ip), vehicle: saline
[15] = dose: 100.0 mg/kg/injection, schedule: Q04DX003 (ip), vehicle: saline with Tween-80
[16] = dose: 100.0 mg/kg/injection, schedule: Q04DX003 (ip), vehicle: Klucel (hydroxypropylcellulose) (HPC)
[17] = dose: 200.0 mg/kg/injection, schedule: Q04DX003 (ip), vehicle: Klucel (hydroxypropylcellulose) (HPC)
[18] = dose: 400.0 mg/kg/injection, schedule: Q04DX003 (ip), vehicle: Klucel (hydroxypropylcellulose) (HPC)
[19] = dose: 100.0 mg/kg/injection, schedule: Q01DX001 (ip), vehicle: saline
[20] = dose: 200.0 mg/kg/injection, schedule: Q01DX001 (ip), vehicle: saline
[21] = dose: 400.0 mg/kg/injection, schedule: Q01DX001 (ip), vehicle: saline

Measured: T/C

NC1=NC(=O)C(c2ccccc2)(c2ccccc2)S1
inactive: [1] 91 % of control | [2] 97 % of control | dose: 100.0 mg/kg/injection, schedule: Q04DX002 (ip), vehicle: Klucel (hydroxypropylcellulose) (HPC) 94 % of control | [3] 98 % of control | [4] 97 % of control | dose: 200.0 mg/kg/injection, schedule: Q04DX002 (ip), vehicle: Klucel (hydroxypropylcellulose) (HPC) 90 % of control | [5] 91 % of control | [6] 97 % of control | dose: 400.0 mg/kg/injection, schedule: Q04DX002 (ip), vehicle: Klucel (hydroxypropylcellulose) (HPC) 97 % of control

CCN(CC)CCNC(=O)c1ccc2nc(N)sc2c1
inactive: [7] 96 % of control | [8] 91 % of control

COc1ccc2c(n1)Sc1c(Cl)nc(Cl)nc1N2
inactive: [9] 95 % of control | [10] 93 % of control | [11] 98 % of control

CC(C)CN(CC(=O)N1CC(=O)Nc2ccccc21)CC(C)C
inactive: dose: 100.0 mg/kg/injection, schedule: Q01DX009 (ip), vehicle: saline 94 % of control | [12] 95 % of control | dose: 200.0 mg/kg/injection, schedule: Q01DX009 (ip), vehicle: saline 87 % of control | [13] 95 % of control | [14] 92 % of control

C=C(Cl)c1c(C)cc(C)cc1C
inactive: dose: 25.0 mg/kg/injection, schedule: Q01DX009 (ip), vehicle: saline with Tween-80 98 % of control | dose: 50.0 mg/kg/injection, schedule: Q01DX009 (ip), vehicle: saline with Tween-80 104 % of control | dose: 100.0 mg/kg/injection, schedule: Q01DX009 (ip), vehicle: saline with Tween-80 98 % of control and 88 % of control | [15] 97 % of control | dose: 200.0 mg/kg/injection, schedule: Q04DX003 (ip), vehicle: saline with Tween-80 86 % of control

CCc1ccc(C(=O)O)oc1=O
inactive: [7] 89 % of control | [8] 92 % of control

CC(=O)OCc1cc(=O)n(C)c2c3c4c(cc12)c(C)cc(=O)n4CO3
inactive: [9] 109 % of control | [16] 104 % of control | [10] 114 % of control | [17] 117 % of control | [11] 118 % of control | [18] 123 % of control

Cc1ccc(-c2nnc(-c3ccccc3)n2-c2cc(C(=O)O)ccc2C)cc1
inactive: [9] 89 % of control | [2] 91 % of control | [10] 91 % of control | [4] 98 % of control | [11] 97 % of control | [6] 98 % of control

C[N+]1(C)CCCCC1
inactive: dose: 12.5 mg/kg/injection, schedule: Q01DX009 (ip), vehicle: saline 106 % of control | dose: 25.0 mg/kg/injection, schedule: Q01DX009 (ip), vehicle: saline 101 % of control | dose: 50.0 mg/kg/injection, schedule: Q01DX009 (ip), vehicle: saline 97 % of control | dose: 50.0 mg/kg/injection, schedule: Q04DX003 (ip), vehicle: saline 101 % of control

O=S(=O)(Nc1ccc(C(F)(F)F)cc1)c1ccc(C(F)(F)F)cc1
inactive: [16] 95 % of control | [17] 92 % of control

Nc1ncnc2c1ncn2C1OC(COP(=O)(O)O)C(O)C1O (stereo not given)
inactive: dose: 9.4 mg/kg/injection, schedule: Q03HX016 (ip), vehicle: water 108 % of control | dose: 9.4 mg/kg/injection, schedule: Q03HX024 (ip), vehicle: water 104 % of control | dose: 18.8 mg/kg/injection, schedule: Q03HX016 (ip), vehicle: water 108 % of control | dose: 18.8 mg/kg/injection, schedule: Q03HX024 (ip), vehicle: water 106 % of control | dose: 37.5 mg/kg/injection, schedule: Q03HX016 (ip), vehicle: water 108 % of control | dose: 37.5 mg/kg/injection, schedule: Q03HX024 (ip), vehicle: water 110 % of control | dose: 75.0 mg/kg/injection, schedule: Q03HX016 (ip), vehicle: water 116 % of control | dose: 75.0 mg/kg/injection, schedule: Q03HX024 (ip), vehicle: water 115 % of control | dose: 100.0 mg/kg/injection, schedule: Q01DX005 (ip), vehicle: saline 98 % of control | dose: 200.0 mg/kg/injection, schedule: Q01DX005 (ip), vehicle: saline 98 % of control

COC(=O)C1CN(Cc2ccccc2)C(=O)C1=O (stereo not given)
inactive: dose: 50.0 mg/kg/injection, schedule: Q01DX001 (ip), vehicle: saline 100 % of control | [19] 100 % of control | [20] 90 % of control | [21] 96 % of control

Nc1ccc2c(c1)C(=O)c1c(F)cccc1-2
inactive: dose: 100.0 mg/kg/injection, schedule: Q04DX003 (ip), vehicle: acetone 98 % of control | dose: 200.0 mg/kg/injection, schedule: Q04DX003 (ip), vehicle: acetone 94 % of control | dose: 400.0 mg/kg/injection, schedule: Q04DX003 (ip), vehicle: acetone 91 % of control

Cc1c(N)c(C)c(-c2c(O)c(Br)c(C)c(O)c2Br)c(C)c1Br
inactive: [9] 93 % of control | [16] 102 % of control | [10] 98 % of control | [17] 96 % of control | [11] 87 % of control | [18] 94 % of control

Cc1ccc(N=Cc2cc(Cl)ccc2O)cc1.Cc1ccc(N=Cc2cc(Cl)ccc2O)cc1.[Co]
inactive: dose: 25.0 mg/kg/injection, schedule: Q04DX003 (ip), vehicle: saline with Tween-80 94 % of control | [15] 116 % of control and 91 % of control

CCNC(=O)c1cc[n+](CC)c(/C=C/c2c[nH]c3ccccc23)c1
inactive: [1] 96 % of control | [3] 98 % of control | [5] 100 % of control

O=C(CCl)N1C(=O)CC(c2ccccc2)C1=O (stereo not given)
inactive: dose: 100.0 mg/kg/injection, schedule: Q04DX002 (ip), vehicle: saline with Tween-80 101 % of control | dose: 200.0 mg/kg/injection, schedule: Q04DX002 (ip), vehicle: saline with Tween-80 97 % of control | dose: 400.0 mg/kg/injection, schedule: Q04DX002 (ip), vehicle: saline with Tween-80 95 % of control

O=c1oc2ccc(O)cc2c2ccccc12
inactive: [12] 105 % of control | [13] 97 % of control | [14] 103 % of control

O=C(CCl)NCc1ccc(Cl)c(C(=O)O)c1
inactive: [19] 103 % of control | [12] 98 % of control | [20] 99 % of control | [13] 88 % of control | [21] 89 % of control | [14] 96 % of control

NS(=O)(=O)c1ccc(C(=O)NO)cc1
inactive: [12] 100 % of control | [13] 110 % of control | [14] 102 % of control

CN(C)c1ccc(/C=N/NC(=O)c2ccc(N)cc2)cc1
inactive: [2] 89 % of control | [4] 86 % of control | [6] 89 % of control
